Reference: patent publication US11291643B2, “Methods of treating hypertriglyceridemia” (Amarin Pharmaceuticals Ireland Limited, priority 2011, dated 2022)

How the values were obtained:
[1] = tested on: patients with fasting triglyceride levels ≥500 mg/dL; assay: Lipoprotein particle size by NMR spectroscopy in the clinical study; assay type: in vivo, human; conditions: for VLDL particle size, placebo-adjusted median percent change from baseline: Hodges-Lehmann median; for HDL particle size, median change from baseline / LDL particle size, median change from baseline / VLDL particle size, median change from baseline: baseline to study end; for HDL particle size, end-of-treatment value (median) / LDL particle size, end-of-treatment value (median) / VLDL particle size, end-of-treatment value (median): study end
Protocol: Lipoprotein particle concentrations and sizes were measured with nuclear magnetic resonance spectroscopy in the above described clinical trial. Lipoprotein particle size and concentration parameters were obtained from fasting blood samples. Lipoprotein particle size and concentrations are measured by nuclear magnetic resonance (NMR) spectroscopy at LipoScience, Inc. (Raleigh, N.C.) using the LipoProfile-3 algorithm. VLDL, LDL, and HDL subclasses of different size were quantified from the amplitudes of their spectroscopically-distinct lipid methyl group NMR signals.
Subjects with missing baseline or Week 12 measurements, due to either missing laboratory samples or un-reportable values, were excluded from this analysis. The median difference of each lipoprotein particle variable (percent change from baseline) between each AMR101 treatment group and the placebo group was evaluated with a nonparametric test using the Hodges-Lehmann medians of the differences between treatment groups and the Wilcoxon rank-sum test (significance level 0.05). All statistical analyses were carried out using SAS 9.2 software.

[2] = tested on: patients with fasting triglyceride levels ≥500 mg/dL; assay: 12-week placebo-controlled double-blind clinical study: fasting lipid parameters; assay type: in vivo, human
Protocol: A multi-center, placebo-controlled randomized, double-blind, 12-week study with an open-label extension was performed to evaluate the efficacy and safety of AMR101 in patients with fasting triglyceride levels ≥500 mg/dL. The primary objective of the study was to determine the efficacy of AMR101 2 g daily and 4 g daily, compared to placebo, in lowering fasting TG levels in patients with fasting TG levels ≥500 mg/dL and ≤1500 mg/dL (≥5.65 mmol/L and ≤16.94 mmol/L). The population for this study was men and women (women of childbearing potential needed to be on contraception or practice abstinence) >18 years of age with a body mass index ≤45 kg/m^2 who were not on lipid-altering therapy or are currently on lipid-altering therapy. Patients currently on statin therapy (with or without ezetimibe) were evaluated by the investigator as to whether this therapy could be safely discontinued at screening, or if it should be continued. If statin therapy (with or without ezetimibe) was to be continued, dose(s) must be stable for ≥4 weeks prior to randomization. Patients taking non-statin, lipid-altering medications (niacin >200 mg/day, fibrates, fish oil, other products containing omega-3 fatty acids, or other herbal products or dietary supplements with potential lipid-altering effects), either alone or in combination with statin therapy (with or without ezetimibe), must have been able to safely discontinue non-statin, lipid-altering therapy at screening. Approximately 240 patients were sought to be randomized at approximately 50 centers in North America, South America, Central America, Europe, India, and South Africa. The study was be a 58- to 60-week, Phase 3, multi-center study consisting of 3 study periods: (1) A 6- to 8-week screening period that included a diet and lifestyle stabilization and washout period and a TG qualifying period; (2) A 12-week, double-blind, randomized, placebo-controlled treatment period; and (3) A 40-week, open-label, extension period. After confirmation of qualifying fasting TG values, eligible patients entered a 12-week, randomized, double-blind treatment period. At Visit 4 (Week 0), patients were randomly assigned to 1 of the following treatment groups: • AMR101 2 g daily, • AMR101 4 g daily, or • Placebo. Eligible patients were randomly assigned at Visit 4 (Week 0) to receive orally AMR101 2 g daily, AMR101 4 g daily, or placebo for the 12-week double-blind treatment period. AMR101 was provided in 1 g liquid-filled, oblong, gelatin capsules. The matching placebo capsule was filled with light liquid paraffin and contained 0 g of AMR101. During the double-blind treatment period, patients took 2 capsules (AMR101 or matching placebo) in the morning and 2 in the evening for a total of 4 capsules per day. Patients in the AMR101 2 g/day treatment group received 1 AMR101 1 g capsule and 1 matching placebo capsule in the morning and in the evening. Patients in the AMR101 4 g/day treatment group received 2 AMR101 1 g capsules in the morning and evening. The primary efficacy variable for the double-blind treatment period was percent change in TG from baseline to Week 12 endpoint. […]

CC/C=C\C/C=C\C/C=C\C/C=C\C/C=C\CCCC(=O)OCC [AMR101, ethyl eicosapentaenoate]
VLDL particle size, placebo-adjusted median percent change from baseline ([1]; 2 g/day vs placebo): −4.0%
HDL particle size, median change from baseline ([1]; 2 g/day, n = 63): 0.0%
LDL particle size, median change from baseline ([1]; 2 g/day, n = 63): 0.0%
VLDL particle size, median change from baseline ([1]; 2 g/day, n = 63): −3.4%
HDL particle size, end-of-treatment value (median) ([1]; 2 g/day, n = 63): 8.9 nm
LDL particle size, end-of-treatment value (median) ([1]; 2 g/day, n = 63): 19.6 nm
VLDL particle size, end-of-treatment value (median) ([1]; 2 g/day, n = 63): 60.6 nm
VLDL particle size, placebo-adjusted median percent change from baseline ([1]; 4 g/day vs placebo): −8.6%
LDL particle size, median change from baseline ([1]; 4 g/day, n = 60): 0.0%
LDL particle size, end-of-treatment value (median) ([1]; 4 g/day, n = 60): 19.7 nm
HDL particle size, median change from baseline ([1]; 4 g/day, n = 61): 1.1%
VLDL particle size, median change from baseline ([1]; 4 g/day, n = 61): −8.6%
HDL particle size, end-of-treatment value (median) ([1]; 4 g/day, n = 61): 8.9 nm
VLDL particle size, end-of-treatment value (median) ([1]; 4 g/day, n = 61): 55.7 nm
Apo B median percent change, AMR101 2 g/day vs. Placebo ([2]; 2 g/day vs placebo, 12 weeks): −2.6%
HDL-C median percent change, AMR101 2 g/day vs. Placebo ([2]; 2 g/day vs placebo, 12 weeks): 1.5%
LDL-C median percent change, AMR101 2 g/day vs. Placebo ([2]; 2 g/day vs placebo, 12 weeks): 5.2%
Lp-PLA2 median percent change, AMR101 2 g/day vs. Placebo ([2]; 2 g/day vs placebo, 12 weeks): −5.1%
Non-HDL-C median percent change, AMR101 2 g/day vs. Placebo ([2]; 2 g/day vs placebo, 12 weeks): −8.1%
TC median percent change, AMR101 2 g/day vs. Placebo ([2]; 2 g/day vs placebo, 12 weeks): −6.8%
TG median percent change, AMR101 2 g/day vs. Placebo ([2]; 2 g/day vs placebo, 12 weeks): −19.7%
VLDL-C median percent change, AMR101 2 g/day vs. Placebo ([2]; 2 g/day vs placebo, 12 weeks): −15.3%
VLDL-TG median percent change, AMR101 2 g/day vs. Placebo ([2]; 2 g/day vs placebo, 12 weeks): −17.3%
Apo B median percent change from baseline ([2]; 2 g/day, 12 weeks): 2.1%
HDL-C median percent change from baseline ([2]; 2 g/day, 12 weeks): 0.0%
LDL-C median percent change from baseline ([2]; 2 g/day, 12 weeks): −2.5%
Lp-PLA2 median percent change from baseline ([2]; 2 g/day, 12 weeks): −5.1%
Non-HDL-C median percent change from baseline ([2]; 2 g/day, 12 weeks): 0.0%
TC median percent change from baseline ([2]; 2 g/day, 12 weeks): 0.7%
TG median percent change from baseline ([2]; 2 g/day, 12 weeks): −7.0%
VLDL-C median percent change from baseline ([2]; 2 g/day, 12 weeks): 0.0%
VLDL-TG median percent change from baseline ([2]; 2 g/day, 12 weeks): −6.4%
Apo B median percent change, AMR101 4 g/day vs. Placebo ([2]; 4 g/day vs placebo, 12 weeks): −8.5%
HDL-C median percent change, AMR101 4 g/day vs. Placebo ([2]; 4 g/day vs placebo, 12 weeks): −3.6%
LDL-C median percent change, AMR101 4 g/day vs. Placebo ([2]; 4 g/day vs placebo, 12 weeks): −2.3%
Lp-PLA2 median percent change, AMR101 4 g/day vs. Placebo ([2]; 4 g/day vs placebo, 12 weeks): −13.6%
Non-HDL-C median percent change, AMR101 4 g/day vs. Placebo ([2]; 4 g/day vs placebo, 12 weeks): −17.7%
TC median percent change, AMR101 4 g/day vs. Placebo ([2]; 4 g/day vs placebo, 12 weeks): −16.3%
TG median percent change, AMR101 4 g/day vs. Placebo ([2]; 4 g/day vs placebo, 12 weeks): −33.1%
VLDL-C median percent change, AMR101 4 g/day vs. Placebo ([2]; 4 g/day vs placebo, 12 weeks): −28.6%
VLDL-TG median percent change, AMR101 4 g/day vs. Placebo ([2]; 4 g/day vs placebo, 12 weeks): −25.8%
Apo B median percent change from baseline ([2]; 4 g/day, 12 weeks): −3.8%
HDL-C median percent change from baseline ([2]; 4 g/day, 12 weeks): −3.5%
LDL-C median percent change from baseline ([2]; 4 g/day, 12 weeks): −4.5%
Lp-PLA2 median percent change from baseline ([2]; 4 g/day, 12 weeks): −17.1%
Non-HDL-C median percent change from baseline ([2]; 4 g/day, 12 weeks): −7.7%
TC median percent change from baseline ([2]; 4 g/day, 12 weeks): −7.3%
TG median percent change from baseline ([2]; 4 g/day, 12 weeks): −26.6%
VLDL-C median percent change from baseline ([2]; 4 g/day, 12 weeks): −19.5%
VLDL-TG median percent change from baseline ([2]; 4 g/day, 12 weeks): −25.2%
Reduction of median apolipoprotein B compared with placebo ([2]; 4 g/day, previously reported, stated as reduction): 8.5%
